Reference: PubChem BioAssay (NCI)
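At the GI50, growth is halved. The concentration for full growth arrest is given as TGI.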

What was measured:
Experiment in all cases: inhibition of tumour cell growth, NCI panel, 384-well format
[1] = test system: MDA-MB-231 breast
[2] = test system: SF-295 CNS
[3] = test system: TK-10 renal
[4] = test system: HL-60(TB) leukemia
[5] = test system: MCF7 breast
[6] = test system: HCC-2998 colon
[7] = test system: SNB-19 CNS
[8] = test system: IGROV1 ovarian
[9] = test system: NCI-H522 lung
[10] = test system: HOP-92 NSCLC
[11] = test system: SN12C renal
[12] = test system: NCI-H322M lung
[13] = test system: SR leukemia
[14] = test system: HT29 colon
[15] = test system: NCI-H226 lung
[16] = test system: OVCAR-4 ovarian
[17] = test system: SW-620 colon
[18] = test system: T-47D breast
[19] = test system: UO-31 renal
[20] = test system: RPMI-8226 leukemia
[21] = test system: NCI-H460 NSCLC
[22] = test system: CCRF-CEM leukemia
[23] = test system: OVCAR-3 ovarian
[24] = test system: K-562 leukemia
[25] = test system: OVCAR-5 ovarian
[26] = test system: SF-539 CNS
[27] = test system: SK-MEL-2 melanoma
[28] = test system: LOX IMVI melanoma
[29] = test system: SK-MEL-28 melanoma
[30] = test system: CAKI-1 renal
[31] = test system: EKVX NSCLC
[32] = test system: MDA-MB-468 breast
[33] = test system: A498 renal
[34] = test system: ACHN renal
[35] = test system: MDA-MB-435 melanoma
[36] = test system: NCI-H23 lung
[37] = test system: HOP-62 NSCLC
[38] = test system: SK-OV-3 ovarian
[39] = test system: U251 glioblastoma
[40] = test system: NCI/ADR-RES ovarian
[41] = test system: SK-MEL-5 melanoma
[42] = test system: SF-268 CNS
[43] = test system: A549 NSCLC
[44] = test system: MALME-3M melanoma
[45] = test system: HCT-116 colon
[46] = test system: M14 melanoma
[47] = test system: RXF 393 renal
[48] = test system: PC-3 prostate
[49] = test system: MOLT-4 leukemia
[50] = test system: BT-549 breast
[51] = test system: UACC-62 melanoma
[52] = test system: OVCAR-8 ovarian
[53] = test system: UACC-257 melanoma
[54] = test system: SNB-75 CNS
[55] = test system: DU-145 prostate
[56] = test system: KM12 colon
[57] = test system: 786-0 renal
[58] = test system: COLO 205 colon
[59] = test system: HCT-15 colon

O=C(NCC(=O)N1CC[C@H](NC2CCC(O)(c3ccc(-c4ncccn4)cn3)CC2)C1)c1cccc(C(F)(F)F)c1 (stereo partly drawn)
GI50 [1]: 77.6 µM
TGI [1]: > 100 µM
GI50 [2]: > 96.1 µM
TGI [2]: > 100 µM
GI50 [3]: > 90 µM
TGI [3]: > 100 µM
GI50 [4]: 30.9 µM
TGI [4]: > 70.2 µM
GI50 [5]: > 54.6 µM
TGI [5]: > 100 µM
GI50 [6]: 35.7 µM
TGI [6]: > 82.3 µM
GI50 [7]: 97.5 µM
TGI [7]: > 100 µM
GI50 [8]: > 96 µM
TGI [8]: > 100 µM
GI50 [9]: 65.6 µM
TGI [9]: > 100 µM
GI50 [10]: > 58.5 µM
TGI [10]: > 100 µM
GI50 [11]: > 100 µM
TGI [11]: > 100 µM
GI50 [12]: > 92.4 µM
TGI [12]: > 100 µM
GI50 [13]: 17.4 µM
TGI [13]: 31.5 µM
GI50 [14]: > 57.4 µM
TGI [14]: > 100 µM
GI50 [15]: > 58 µM
TGI [15]: > 100 µM
GI50 [16]: > 60.6 µM
TGI [16]: > 100 µM
GI50 [17]: > 100 µM
TGI [17]: > 100 µM
GI50 [18]: 12.1 µM
TGI [18]: > 69.4 µM
GI50 [19]: 81.2 µM
TGI [19]: > 100 µM
GI50 [20]: 20.8 µM
TGI [20]: 74.2 µM
GI50 [21]: 38.4 µM
TGI [21]: > 100 µM
GI50 [22]: 29.6 µM
TGI [22]: > 100 µM
GI50 [23]: > 81.8 µM
TGI [23]: > 100 µM
GI50 [24]: 15.4 µM
TGI [24]: 31.5 µM
GI50 [25]: > 100 µM
TGI [25]: > 100 µM
GI50 [26]: > 67.3 µM
TGI [26]: > 100 µM
GI50 [27]: > 64.4 µM
TGI [27]: > 100 µM
GI50 [28]: 53.6 µM
TGI [28]: > 100 µM
GI50 [29]: > 60 µM
TGI [29]: > 100 µM
GI50 [30]: 48.1 µM
TGI [30]: > 100 µM
GI50 [31]: 55.9 µM
TGI [31]: > 100 µM
GI50 [32]: 17.1 µM
TGI [32]: 59.3 µM
GI50 [33]: 55.1 µM
TGI [33]: > 100 µM
GI50 [34]: > 100 µM
TGI [34]: > 100 µM
GI50 [35]: > 100 µM
TGI [35]: > 100 µM
GI50 [36]: 33.5 µM
TGI [36]: > 88.2 µM
GI50 [37]: > 64.7 µM
TGI [37]: > 100 µM
GI50 [38]: > 85.7 µM
TGI [38]: > 100 µM
GI50 [39]: 52.5 µM
TGI [39]: > 100 µM
GI50 [40]: > 100 µM
TGI [40]: > 100 µM
GI50 [41]: 29.7 µM
TGI [41]: > 52.1 µM
GI50 [42]: > 81.4 µM
TGI [42]: > 100 µM
GI50 [43]: > 100 µM
TGI [43]: > 100 µM
GI50 [44]: > 56.4 µM
TGI [44]: > 90.9 µM
GI50 [45]: 32.1 µM
TGI [45]: > 100 µM
GI50 [46]: > 49.1 µM
TGI [46]: > 73.5 µM
GI50 [47]: 23.6 µM
TGI [47]: 63.3 µM
GI50 [48]: 61.7 µM
TGI [48]: > 100 µM
GI50 [49]: 20.9 µM
TGI [49]: 63 µM
GI50 [50]: 30 µM
TGI [50]: > 100 µM
GI50 [51]: > 47.5 µM
TGI [51]: > 70.8 µM
GI50 [52]: 96.8 µM
TGI [52]: > 100 µM
GI50 [53]: 19.2 µM
TGI [53]: 41.1 µM
GI50 [54]: > 100 µM
TGI [54]: > 100 µM
GI50 [55]: > 100 µM
TGI [55]: > 100 µM
GI50 [56]: > 100 µM
TGI [56]: > 100 µM
GI50 [57]: 69.3 µM
TGI [57]: > 100 µM
GI50 [58]: > 87 µM
TGI [58]: > 100 µM
GI50 [59]: > 66.7 µM
TGI [59]: > 100 µM
